Reference: publication PMC9590307, “Peptide ^Tat(48–60) YVEEL protects against necrotizing enterocolitis through inhibition of toll-like receptor 4-mediated signaling in a phosphatidylinositol 3-kinase/AKT dependent manner” (Frontiers in Nutrition, 2022)

Experiments:
Type in all cases: cell-based, human
[1] = test system: TLR4-mediated signaling in FHC enterocytes; assay: Western blot of TLR4-mediated signaling in LPS-treated enterocytes
[2] = test system: TLR4-mediated signaling in FHC enterocytes; assay: qRT-PCR of IL-6 and COX-2 mRNA in LPS-treated enterocytes
FHC cells = assay: In vitro enterocyte migration (scratch wound); details: Ys49 2 and 5 μM with peptide 40 μM for 1 h, then LPS
Experimental: Cells were expected to reach a 100% confluence on the day of the experiment. Monolayers were scratched by a sterile pipette tip and washed for three times with pre-warmed 1 × PBS. The wounded monolayer of FHC or IEC-6 cells was imaged at indicated time using a microscope (Zeiss, Germany). The relative migration index of the cells was measured according to the area of the wound edge by Image J software (NIH Image, USA).

[3] = test system: p65 subunit of NF-κB in FHC cells; assay: Immunofluorescence staining of NF-κB p65 nuclear translocation; details: Ys49 2 and 5 μM with peptide 40 μM for 1 h, then LPS
Experimental: FHC cells were fixed, washed and blocked, and then incubated with the following primary antibodies: anti-NF-κB p65 (Cell Signaling Technology, USA) and […]. The Alexa Fluor® 488-labeled goat anti-rabbit secondary antibody was used (Cell Signaling Technology, USA). FHC cells were counterstained with DAPI (Sigma-Aldrich, USA) and visualized using a fluorescence microscope (Zeiss, Germany).

[4] = test system: PI3K/AKT pathway in FHC enterocytes; assay: Western blot of PI3K and AKT phosphorylation; details: Ys49 2 and 5 μM with ^Tat(48–60) YVEEL 40 μM for 1 h, then LPS
Experimental: Cell pellets or intestinal tissues were lysed with RIPA buffer (Beyotime, China) for 20 min on ice and lysates were collected by centrifugation (13000 × g, 20 min at 4°C). Protein concentrations were quantified using the BCA Protein Assay (Thermo Fisher Scientific, USA) and equal amounts (20 μg) of protein lysates from each sample were separated by SDS-PAGE. Separated proteins were then transferred to PVDF membranes (Millipore, USA). Membranes were blocked with 5% skim milk or BSA and then incubated with the following primary antibodies: anti-TLR4 (Abcam, USA), anti-p-IκBα (Abcam, USA), anti-IκBα (Abcam, USA), anti-p-PI3K (Cell Signaling Technology, USA), anti-p-AKT (Cell Signaling Technology, USA), anti-PI3K (Cell Signaling Technology, USA), anti-AKT (Cell Signaling Technology, USA), anti-β-actin (Abcam, USA). Membranes were then incubated with species-matched HRP-conjugated secondary antibodies (Biosharp, China). Protein expressions were visualized using Immobilon® Western Chemiluminescent HRP Substrate (Millipore, USA) in accordance with the manufacturer’s protocol.

[5] = Ys49 2 and 5 μM with ^Tat(48–60) YVEEL 40 μM for 1 h, then LPS
[6] = LY294002 10 μM in the absence or presence of ^Tat(48–60) YVEEL 40 μM, LPS

## Oc1cc2c(cc1O)C(Cc1cccc3ccccc13)NCC2 (stereo not shown) [Ys49]
[1]; [5]
  effect on ^Tat(48–60) YVEEL-induced reduction of TLR4 expression: notably reversed
  effect on ^Tat(48–60) YVEEL-induced reduction of p-IκBα expression: notably reversed
[2]; [5]
  effect on protective effect of ^Tat(48–60) YVEEL on TLR4-mediated induction of pro-inflammatory cytokines (IL-6, COX-2 mRNA): reversed
FHC cells
  effect on protective effect of ^Tat(48–60) YVEEL on enterocyte migration: attenuated
[3]
  effect on blockage of TLR4-mediated cytoplasm-nucleus translocation of p65 by the peptide: attenuated
[4]
  effect on inhibitory effects of ^Tat(48–60) YVEEL on PI3K/AKT pathway: significantly abolished

## O=c1cc(N2CCOCC2)oc2c(-c3ccccc3)cccc12 [LY294002]
[1]; LY294002 10 μM plus ^Tat(48–60) YVEEL 40 μM, LPS
  TLR4 protein expression, inhibition in the presence of ^Tat(48–60) YVEEL: more significant
[1]; LY294002 10 μM, LPS
  TLR4 protein expression: could inhibit
[2]; [6]
  TLR4-induced mRNA expression of COX-2: reduced
  TLR4-induced mRNA expression of IL-6: reduced
